Structure (SMILES) | melting point
Cn1nnc(-c2ccc3c(c2)c(C2CCN(CCN4CCNC4=O)CC2)cn3-c2ccncc2)n1 | 204 to 206 °C
CC(C)(C)OC(=O)NCC/C=C/c1cncnc1 | 54 to 55.5 °C
CC(=O)Oc1c(N2CCCC2)c(=O)n(-c2ccccc2)c2ncccc12 | 197 to 200 °C
Cc1cc(O)c(F)cc1Br | 44 to 46 °C
Cc1ccccc1CC(=NC#N)NC(NC(=O)Cc1ccc2c(c1)OCCO2)C(C)(C)C (stereo not given) | 180 to 181 °C
Nc1nc2ccccc2c2c1nc(-c1ccccc1)n2CCOc1ccccc1 | 182 to 185 °C
COc1ccc(C)c(OC(F)C(=O)c2ccccc2)c1 (stereo not given) | 57 to 58 °C
CCC(CC)(CCl)c1cc(Cl)nnc1Cl | 45 to 47 °C
Cc1cc(Cl)cc(C(=O)Nc2ccn(C)n2)n1 | 204 °C
CCn1cc(Nc2nc(Br)cn(C)c2=O)cn1 | 138 to 140 °C
Cc1cccc(C)c1COc1cc(C(=O)N(C)C)cc2c1nc(C)n2C | 180 °C
CCOC(=O)C(Cc1ccc(O)cc1)C(=O)OCC | 45 °C
COc1cc2c(Nc3ccc(Cl)cc3F)ncnc2cc1OCCOc1cccnc1 | 188 to 190 °C
CC(COc1ccccc1)C1CC=C2C3=C(CCC21C)C1(C)CCC(O)C(C)(C)C1CC3 (stereo not given) | 134 to 137 °C
CCOC(=O)c1c(CN(CC)CC)nc2sc(C)c(C)c2c1-c1ccc(Cl)cc1 | 98 to 100 °C
CN1c2ccccc2C(c2ccccc2F)=NCC1CNC(=O)C(Cc1c[nH]c2ccccc12)NC(=O)OC(C)(C)C (stereo not given) | 124 °C
CNc1cc(OC)cc(NCCOC)c1[N+](=O)[O-] | 84 °C
O=C1C=C/C(=C/c2ccc(F)cc2)O1 | 140 to 142 °C
COC(=O)c1ccc(CC(C)NCC(O)c2ccc(O)c(CO)c2)c(OC)c1 (stereo not given) | 96 to 105 °C
COc1cc2nc(N3CCNCC3)nc(N)c2cc1OC | 224 to 228 °C
COc1ccc(-c2nc(N)sc2CCN2CC=C(c3ccccc3)CC2)cc1 | 163 °C
CNc1ccc(C(=O)N2CCN(CCc3ccc(SC)cc3)CC2)cc1 | 120 to 121 °C
NC(=O)[C@@H]1[C@H](Nc2ccnc3[nH]c(-c4cccc(CN5CCOCC5)c4)nc23)[C@H]2C=C[C@@H]1C2 | 240 to 244 °C
O=C1NCCCCC1NC(c1ccccc1)(c1ccccc1)c1ccccc1 (stereo not given) | 189 °C
Nc1ncnc2c1ncn2OCCCOCP(=O)(O)O | 246 to 249 °C
NC(=O)c1c(C(=O)O)cccc1[N+](=O)[O-] | 188 °C
CC(=O)NCc1cn(-c2ccc(-n3cccc3)c(F)c2)nn1 | 210 to 215 °C

Structure (SMILES) | melting point
CC(=O)c1cc2c(cc1Cl)C(C)(C)CC2(C)C | 69 to 71 °C
Cc1cn(C2CC(O)C(CNC(=O)c3ccc(Br)cc3)O2)c(=O)[nH]c1=O (stereo not given) | 250 to 252 °C
CC(=O)SC(CC(=O)c1ccc(Oc2ccc(C(C)C)cc2)cc1)C(=O)O (stereo not given) | 110 to 112 °C
CSc1sc(-c2nc(C)no2)c2c1C(=O)CC(C)(C)C2 | 177 to 180 °C
CC(C)(CO)NC(=O)c1ccccc1-c1ccccc1 | 38.5 to 40.5 °C
CCCCC1CCCC2=C1C(=O)c1ccccc1C2=O (stereo not given) | 64 to 65 °C
O=[N+]([O-])c1nccn1C1OC(CO)C(O)C1O (stereo not given) | 160 °C
CC(C)(C)NC(=O)c1ccc(I)cc1 | 149 to 150 °C
Cc1c(-c2ccc(O)cc2)n(Cc2ccc(OCCN3CCCCC3C)cc2)c2ccc(O)cc12 (stereo not given) | 121 to 123 °C
Cn1c(C(F)(F)F)cc(=O)n(-c2cc(Oc3ncccc3[N+](=O)[O-])c(Cl)cc2F)c1=O | 177 to 179 °C
COc1ccc(Cn2c(=O)c(C(=O)NC3CCCCC3)c(O)c3cc(F)cnc32)cc1 | 176 °C
COc1ccc2cc([C@H](C)C(=O)OCC(=O)N(C)CC(=O)OC(C)(C)C)ccc2c1 | 103 to 104 °C
O=c1oc(-c2cc(C(F)(F)F)cc(C(F)(F)F)c2)cc(O)c1Cc1ccccc1 | 80 to 82 °C
CCS(=O)(=O)c1ncc(C(F)(F)F)cn1 | 98 °C
CCCCCCCCCCCCCCCCN1CCN(c2ccc(CCC(=O)O)cc2)CC1 | 218 to 220 °C
NC1CCN(c2ncc3ncnc(Nc4ccc(F)c(Cl)c4)c3n2)C1 (stereo not given) | 174 to 176 °C
CCCC(Cl)(Cl)C(NC(=O)c1ccc(Cl)cc1)NC(=NC#N)Nc1cccnc1 (stereo not given) | 192 to 193 °C
Cc1cccc2c1C=Cc1ccccc1C2(C)O (stereo not given) | 107 to 109 °C
c1ccc(NCC2CCNCC2)cc1 | 60 to 61 °C
CCCCn1c(=O)c2c(NC)n[nH]c2n(CCNCc2ccccc2)c1=O | 198 to 200 °C
CCOCOC1=C(c2cc(C)ccc2C)C(=O)NC12CCN(OC)CC2 | 150 to 152 °C
O=C(c1ccccc1F)c1cc(Br)ccc1NC(=O)C(F)(F)F | 132 °C
CCCCCOC(=O)NS(=O)(=O)CCc1cc(OCCCC)nn1Cc1ccc(Cl)cc1Cl | 91 to 93 °C
Cc1cc(SCc2sc(-c3ccc(C(F)(F)F)cc3)nc2C)ccc1OCC(=O)O | 139 to 141 °C
CCS(=O)(=O)N(C)C1CCN(c2ccccc2)c2ccccc21 (stereo not given) | 72 °C
COC(=O)c1cc(OCCc2nc(-c3ccccc3)oc2C)no1 | 90 to 91 °C
CCOC(C#N)Cc1ccc(O)c(N)c1 (stereo not given) | 114 to 115 °C

Structure (SMILES) | melting point
Cc1c(SCCCSCc2ccncc2)ccnc1CNc1ncncc1Cl | 148 to 149 °C
COc1cc2nc3ccccc3sc-2c(OC)c1=O | 193 °C
CC12CCC(=O)C=C1CCN(Cc1ccccc1)C2 (stereo not given) | 98 °C
COc1ccc(CC(=O)Nc2cccc3nc(N[C@@H]4CCc5ccccc54)ccc23)cc1 | 175 °C
CC(=O)c1cccc(Nc2ccc3ccccc3n2)c1 | 181 to 183 °C
CC(C)Cc1cccc(CCCn2c(=O)c3c(Cl)cc(Cl)cc3n(Cc3ccccc3)c2=O)c1 | 108 to 111 °C
Cc1nc2c(-c3ccc(N4CCN(C)CC4)cc3)cnn2c(N)c1-c1ccc(F)c(Cl)c1 | 264 to 265 °C
CN1Cc2ccc3c(c2C1)NC(=O)C3=NO | 242 to 244 °C
O=C(O)c1nc(CCCc2ccccc2)c[nH]1 | 148 to 150 °C
COCCn1c(C)nc2c(N)nc3ccccc3c21 | 230 to 233 °C
COC(=O)c1ccc(OCC(C)NCC(O)c2cccc(Cl)c2)cc1 (stereo not given) | 99 to 101 °C
COC(=O)c1cc2cc(OCc3cccnc3)ccc2s1 | 126 to 127 °C
N=C(Nc1ccc(Cl)cc1)NC1CCCCC1 | 187 to 190 °C
O=C(CCCC1CCN(Cc2ccccc2)CC1)c1ccc(F)cc1 | 53 to 55 °C
O=c1c2cccc3c2n(c(=O)n1CCO)-c1cc(C(F)(F)F)ccc1S3 | 90 to 93 °C
CCCCCC(CCN1C(=O)NC2CC(=O)CC21)OC(C)=O (stereo not given) | 85 to 86 °C
Cc1cc(C#N)cc(C(=O)c2nc(OCc3ccccc3)nc(OCc3ccccc3)c2C(C)C)c1 | 129 to 130 °C
CCOCCn1c(NC2CCN(CC#N)CC2)nc2cccnc21 | 141 °C
CCOC(=O)C(C)(C)n1c(=O)[nH]c2cc(Cl)ccc2c1=O | 201 to 202 °C
CC(C)NC(=O)c1cc(-n2c(=O)cc(C(F)(F)F)[nH]c2=O)c(F)cc1Cl | 234 to 239 °C
COc1cccc(-c2cc(=O)cc(N3CCOCC3)o2)c1 | 115 to 117 °C
COc1ccc2c(c1)OC(CCO)C(=O)N2Cc1cccc([N+](=O)[O-])c1 (stereo not given) | 116 to 118 °C
Cc1ccc(NC(=O)c2ccc(/C=C/C(=O)NOC3CCCCO3)cc2)cc1Nc1nc(-c2cccnc2)cs1 (stereo not given) | 168 °C
c1ccc(OCCSCc2ncc(-c3ccc(N=C(c4ccccc4)c4ccccc4)cc3)o2)cc1 | 86 to 90 °C
Cc1nnc(NCCNC2CN3CCC2CC3)c2cc3ccccn3c12 (stereo not given) | 205 to 208 °C
CCc1cc(N)c(C(=O)c2ccccc2)c(C)n1 | 200 to 202 °C
CCNc1ccc(NS(=O)(=O)c2ccc(C)cc2)c(C)c1 | 162 to 163 °C

Structure (SMILES) | melting point
OCc1cc2c(F)ccc(Cl)c2s1 | 63 to 64 °C
NS(=O)(=O)c1ccccc1C(=O)OCCO | 84 to 86.5 °C
CCCCCCOc1ccc(C(=O)Nc2ccccc2Sc2ccccc2-c2nnn[nH]2)cc1 | 154 to 156 °C
CC1OC(n2c(Cl)nc3cc(Cl)c(Cl)cc32)C(O)C1O (stereo not given) | 85 to 86 °C
Cc1oc(-c2ccccc2)nc1COc1ccc(CCCCCBr)cc1 | 58 to 59 °C
Cc1nn(-c2c(Cl)cc(C(F)(F)F)cc2Cl)c(N)c1C#N | 194 to 196 °C
O=c1c(Br)c(O)ccn1Cc1ccc(O)cc1 | 102 to 108 °C
O=C(O)CCCC1Cc2ccccc2C1 | 75 °C
C=CCSc1nnc(OCC)c2c1CCCC2 | 39 to 41 °C
CC1CC(N)=NN1c1nc2c(s1)CCCC2 (stereo not given) | 247 to 249 °C
COCC#Cc1ncn2c1CN(C)C(=O)c1cc(F)ccc1-2 | 146 to 147 °C
CNC(=O)Nc1cc2c(c3c1OC(C)(C)C3)C(c1ccccc1)=NC(C)(C)C2 | 209 to 211 °C
CS(=O)(=O)c1ccc(C(=O)O)c([N+](=O)[O-])c1 | 204 to 206 °C
Cc1cc(C(=O)NCCO)ncc1C(c1cc(F)ccc1F)S(=O)(=O)c1cc(F)cc(F)c1 (stereo not given) | 82 to 84 °C
COc1cc(Nc2c(C#N)cnc3cc(-c4cnc(C=O)n4C)ccc23)c(Cl)cc1Cl | 186 to 189 °C
CCOCCOC(=O)C1=C(C)NC(C=O)=C(C(=O)OCC)C1c1cccc([N+](=O)[O-])c1 (stereo not given) | 100 to 101 °C
Fc1cc2c(Nc3ccc(Cl)c(Cl)c3)ncnc2cn1 | 262 to 264 °C
CCCCOc1c(C(C)O)n(C)c(=O)c2cc(Cl)c(Cl)cc12 (stereo not given) | 123 to 124 °C
CC(C)(Cc1ccc(Cl)cc1)C(C#N)C(=O)O (stereo not given) | 137 to 138 °C
O=C(Nc1ccc([N+](=O)[O-])cc1)N1CCN(c2ncnc3ccccc23)CC1 | 155 to 158 °C
Cc1ccc(C(=O)Nc2ccc(N3CCCCC3)c(C(F)(F)F)c2)cc1Nc1nccc(-c2cccnc2)n1 | 201 to 202 °C
O=C1CC(OC2CCCCO2)C(CC2CCCCC2)N1 (stereo not given) | 110 to 115 °C
CCc1ccc2[nH]c(C(=O)OC)cc2c1 | 112 °C
C#CCn1c(C(F)(F)F)c(CO)c2ccccc21 | 90 °C

Reference: a melting point compilation (Tetko et al.; mined from patent text by program, amines drawn as free bases though some values may be those of a salt)
